In US11420975B2, “Substituted imidazo[1,5-a]pyrazines as Bruton's tyrosine kinase inhibitors” (TRANSTHERA SCIENCES (NANJING), INC., priority 2018, dated 2022) one finds TGI and IC50 data, which are given here for 1 molecule.

In test [1] the test system is TMD-8 xenograft tumor. The test can be described thus: TMD-8 xenograft tumor model. Conditions: intragastric 25 mg/kg once/day. The test is classed as in vivo. The protocol:
(§1) CB17/SCID female mice with serious immune deficiency were purchased from Beijing Vital River Laboratory Animal Technology Co., Ltd. and bred in SPF animal houses. Human TMD-8 cells (Shanghai Junrui-UFBN1682) were cultured in an RPMI 1640 culture medium containing 10% fetal bovine serum, 100 U/mL penicillin and 100 μg/mL streptomycin through monolayer culture in vitro in an incubator (37° C., 5% C02). Routine treatment was performed twice a week for passaging. At a cell saturation of 80%-90% and a required number, the cells were harvested and counted. 0.2 mL (1×10^7) of TMD-8 cells (together with matrigel at a volume ratio of 1:1) were subcutaneously inoculated into the right back of each mouse, and the tumor size could be measured about one week after inoculation. Tumor size was measured using a vernier caliper and tumor volume was calculated using the following formula: tumor volume=(length×width^2)/2.

Test [2] has as its system TMD-8. The test can be described thus: In vitro tumor cell proliferation inhibition, TMD-8 (CellTiter-Glo). The test is classed as cell-based. Conditions: Homo sapiens, TMD8; TMD-8 cells, 72 h. The protocol: (§2) (1) Method • The tumor cell line (TMD-8/OCY-LY10) was suspended in RPMI1640+FBS10% and cultured in an incubator (37° C., 5% CO2). Cells were passaged periodically, and cells at logarithmic growth phase were collected for plating. • Cell staining was performed with trypan blue and viable cells were counted. • Cell concentration was adjusted to 7000 cells/well with medium. • 90 μL of cell suspension was added to a 96-well plate and cell-free culture medium was added to the blank control wells. • Cells in the 96-well plate were incubated overnight in an incubator (37° C., 5% CO2, 100% relative humidity). • Preparation of 400× compound storage plates: test compounds and reference drug were each dissolved in DMSO and 3× diluted from the highest concentration (400 μM) to the lowest concentration (0.61 μM). • Preparation of 10× compound working solutions: 78 μL of cell culture medium was added to a V-bottom 96-well plate, and 2 μL of the compound was pipetted from the 400× compound storage plate into the 96-well plate. Vehicle control wells and blank control wells were added with 2 μL of DMSO. […] Inhibition rates of compounds at different concentrations were calculated in Excel, followed by plotting the inhibition curves and calculating IC50 values with GraphPad Prism.

Test [3] relates to OCI-LY10. In words: In vitro tumor cell proliferation inhibition, OCI-LY10 (CellTiter-Glo). Conditions: Homo sapiens; OCI-LY10 cells, 72 h. The test is classed as cell-based. The protocol:
as §2

Test [4] concerns OCI-LY10 xenograft tumor. The test can be described thus: OCI-LY10 xenograft tumor model. The test is classed as in vivo. Conditions: intragastric 25 mg/kg once/day, day 28. On the procedure: as §1, with “OCI-LY10” for “TMD-8”, “Junrui-UFBN0102)” for “Junrui-UFBN1682)”

`C=CC(=O)N1CCC[C@@H](n2nc(-c3ccc(Oc4ccccc4)cc3)c3c(N)ncnc32)C1` [Ibrutinib, ibrutinib, reference compound]: the TGI in test [1] is 90%; in test [4] it was 94%. The figures for the IC50 in test [2] and in test [3] were 0.4 nM and 1.7 nM, respectively.
